Measurements from US11160837B2, “Megamonas funiformis and applications thereof” (BGI SHENZHEN, priority 2017, dated 2021).

Tested on: AF24-28AC
Assay: Antibiotic sensitivity of AF24-28AC by the drug sensitive paper method
Type: cell-based, Megamonas funiformis
Settings: for Resistance / sensitivity of AF24-28AC to the antibiotic: drug sensitive paper method, result in words
Method: The sensitivity of AF24-28AC to 20 common antibiotics was tested by the drug sensitive paper method. 100 μl of AF24-28AC bacterial solution cultured to the logarithmic phase was spread plated. Antibiotic susceptibility papers (purchased from Hangzhou Microbial Reagent Co. LTD.) were affixed on the medium surface of plates, cultured at 37° C. for 48 hours, after which the size of inhibition zone was measured.

Compound	Diameter of inhibition zone (antibiotic susceptibility papers on plates spread with AF24-28AC, 37° C., 48 hours) [cm]	Resistance / sensitivity of AF24-28AC to the antibiotic
CN(C)[C@@H]1C(=O)C(C(N)=O)=C(O)[C@@]2(O)C(=O)C3=C(O)c4c(O)cccc4[C@@](C)(O)[C@H]3C[C@@H]12 [Acheomycin]	4.2	
CCN1CCN(C(=O)N[C@@H](C(=O)N[C@@H]2C(=O)N3C(C(=O)O)=C(CSc4nnnn4C)CS[C@H]23)c2ccc(O)cc2)C(=O)C1=O [Cefoperazone]		resistant
Cc1onc(-c2ccccc2)c1C(=O)N[C@@H]1C(=O)N2[C@@H]1SC(C)(C)[C@@H]2C(=O)O [Oxacillin]		resistant
Penicillin		resistant
